Experimental data as given in patent US11529337B2, “Method of treating pain” (VERTEX PHARMACEUTICALS INCORPORATED, priority 2018, dated 2022).

What was measured:
[1] = system: patients with chronic pain caused by small fiber neuropathy; assay: Randomized, double-blind, placebo-controlled 6-week study in patients with chronic pain caused by small fiber neuropathy (Example 5); format: in vivo, human
Description: A randomized, double-blind, placebo-controlled, 6-week study that evaluated treatment with Compound 1 (Treatment Arm) or placebo (Placebo Arm) in patients with chronic pain caused by small fiber neuropathy was conducted.
Males and females between the ages of 18 and 80 years, inclusive, with small fiber neuropathy.
Compound 1 was administered orally in 250 mg capsules, prepared as described in Example 2.
The study included a 7-day run-in period, followed a 6-week treatment period. The subjects were randomized to a Placebo Arm (43 subjects) and a Treatment Arm (46 subjects) between the run-in period and the treatment period.
During the run-in period, subjects reported their average pain and sleep interference to establish a baseline NRS pain score and DSIS score.
During the treatment period, Compound 1 was administered to the subjects in the Treatment Arm every 24 hours (q24 h) in a dose of 1250 mg. Subjects in the Placebo Arm received placebo capsules.
11-point Numeric Rating Scale (NRS). Pain intensity was evaluated using an 11-point NRS. The 11-point scale ranged from 0 (no pain) to 10 (worst imaginable pain). From Day −7 through Week 6, subjects reported their average daily pain during the last 24 hours on the NRS via electronic diary.
Daily Sleep Interference Scale (DSIS). Subjects reported pain interference with sleep using an 11-point scale ranging from 0 (none) to 10 (severe). […]

[2] = system: subjects with pain following bunionectomy; assay: Randomized, double-blind, placebo-controlled study of efficacy in subjects with pain following bunionectomy (Example 3); format: in vivo, human
Description: A randomized, double-blind, placebo-controlled, 3-arm, parallel-design study to evaluate the effect of Compound 1 on acute surgical pain was conducted. Bunionectomy is a well-established, multi-dose, surgical, acute pain model. A randomized, double-blind study design was selected to avoid observer bias and reduce symptoms or outcomes arising from the subjects' knowledge of treatment. A parallel design was considered most appropriate given the acute nature of bunionectomy surgery.
Male and female patients between the ages of 18 and 65 years (inclusive) with pain that is ≥4 on an 11-point Numeric Pain Rating Scale (NPRS) and is moderate or severe on the Verbal Categorical Rating Scale (VRS) after bunionectomy.
Investigational Drug: Compound 1. The investigational drug was administered orally in 250 mg capsules, prepared as described in Example 2. The investigational drug was administered every 12 hours (q12 h). […]
On the 11-point NPRS, a score of 0 denoted no pain, and a score of 10 denoted the worst pain intensity imaginable. […] Pain intensity also was recorded on the NPRS immediately before each administration of rescue medication. Pain intensity scores that were collected within 4 hours after a dose of rescue medication were taken as missing, and the missing values were imputed as the intensity recorded immediately before the administration of rescue medication. […]

[3] = system: subjects with pain following bunionectomy; assay: Safety and tolerability evaluations in the bunionectomy study (Example 3)
Description: Safety evaluations included adverse events, clinical laboratory assessments, clinical evaluation of vital signs, electrocardiograms, and physical examinations.

## Cc1cc(F)ccc1Oc1cc(C(F)(F)F)ccc1C(=O)Nc1ccn(COP(=O)(O)O)c(=O)c1 [Compound 1, (4-(2-(4-fluoro-2-methylphenoxy)-4-(trifluoromethyl)benzamido)-2-oxopyridin-1(2H)-yl)methyl dihydrogen phosphate]
[1]; Week 6, total = subjects with data at Week 6
  Subjects with ≥30% reduction in weekly average of daily pain intensity on NRS: 45.0% (18/40)
[1]; observed as early as Week 1
  Treatment difference in NRS pain intensity versus placebo at Week 1: greater than 1 point
[2]; Investigational Arm versus placebo
  Relief of acute pain compared to placebo (SPID24), in words: statistically significant relief of acute pain compared to placebo
[2]; number (percentage) of subjects assigned to the arm
  Subjects who discontinued due to lack of efficacy: 6 (7.5%)
[3]; bunionectomy study
  Tolerability, in words: generally well tolerated
[3]; share of subjects in the arm
  Gastrointestinal adverse events: 13%
